IC50 data for 15 compounds are collected here from patent publication US7265130B2, “NPY Y5 antagonist” (Shionogi & Co., Ltd., priority 1999, dated 2007).

Assay [1] has as its target T1, human NPY Y5 receptor (Homo sapiens, UniProt Q15761).
T1 construct: expressed in transfected cells
T1 sequence (Q15761 1-445): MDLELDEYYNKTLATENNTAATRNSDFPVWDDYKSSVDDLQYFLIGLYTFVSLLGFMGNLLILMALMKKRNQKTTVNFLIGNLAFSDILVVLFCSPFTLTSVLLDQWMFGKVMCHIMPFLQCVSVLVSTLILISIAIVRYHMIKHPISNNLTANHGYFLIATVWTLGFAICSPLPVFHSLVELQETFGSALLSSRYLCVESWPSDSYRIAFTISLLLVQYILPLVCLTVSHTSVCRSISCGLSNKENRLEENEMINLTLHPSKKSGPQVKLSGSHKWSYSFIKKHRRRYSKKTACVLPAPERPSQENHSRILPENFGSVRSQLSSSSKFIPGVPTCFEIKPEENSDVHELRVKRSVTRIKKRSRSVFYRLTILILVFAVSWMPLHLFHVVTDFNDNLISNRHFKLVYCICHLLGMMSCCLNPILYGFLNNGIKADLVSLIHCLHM
The assay can be described thus: Affinity for NPY Y5 receptor ([125I] peptide YY binding, CHO cell membranes). The settings on record: inhibition of specific [125I] peptide YY binding, membranes of CHO cells expressing NPY Y5 receptor. The essentials:
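Membranes from CHO cells stably expressing human NPY Y5 receptor incubated with test compound and [125I] peptide YY (60 pM final) in HEPES-Hanks buffer with 0.1% BSA, pH 7.4, 25° C for 2 hours. Filter-bound radioactivity counted; non-specific binding with 200 nM peptide YY; IC50 against specific binding calculated.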

Assay [2] has as its target T1, human NPY Y5 receptor. Briefly: cAMP production inhibitory activity in CHO cells. The class given is cell-based. The note with it: against 50 nM NPY inhibition of forskolin stimulated cAMP, CHO cells expressing human NPY Y5 receptor. The essentials: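 CHO cells expressing human NPY Y5 receptor preincubated 20 min at 37 °C with 2.5 mM IBMX, then with compound for 5 min. Stimulated with 50 nM NPY plus 10 μM forskolin for 30 min. Reaction stopped with 1N HCl; supernatant cAMP measured by EIA.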

Another assay concerns the target T2, NPY Y1 receptor (Homo sapiens, UniProt P25929).
T2 construct: membranes prepared from Y1-expression cells (human neuroblastoma, SK-N-MC); endogenous in cells; host or cells: SK-N-MC human neuroblastoma cells (membranes)
T2 sequence (P25929 1-384): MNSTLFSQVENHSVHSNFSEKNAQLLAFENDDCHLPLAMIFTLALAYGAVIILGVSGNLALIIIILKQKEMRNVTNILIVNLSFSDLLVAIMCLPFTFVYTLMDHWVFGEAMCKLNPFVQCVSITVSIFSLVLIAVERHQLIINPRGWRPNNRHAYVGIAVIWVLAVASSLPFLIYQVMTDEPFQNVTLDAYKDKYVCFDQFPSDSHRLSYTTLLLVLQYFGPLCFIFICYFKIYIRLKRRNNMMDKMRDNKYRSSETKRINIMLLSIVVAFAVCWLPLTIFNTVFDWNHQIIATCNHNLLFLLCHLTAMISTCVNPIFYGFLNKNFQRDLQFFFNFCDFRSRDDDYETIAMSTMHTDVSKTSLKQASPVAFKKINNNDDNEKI
Briefly: Affinity for NPY Y1 receptor (membranes from SK-N-MC cells). The settings on record: membranes from Y1-expression cells (human neuroblastoma, SK-N-MC); read-out: Binding IC50 for NPY Y1 receptor. As for the experimental part: (§1) The membranes prepared from the above CHO cells expressing NPY Y5 receptor, the compound of the present invention and 30,000 cpm [^125I] peptide YY (60 pM of final concentration: Amersham) were incubated in the assay buffer (20 mM HEPES-Hanks buffer containing 0.1% bovine serum albumin, pH 7.4) at 25° C. for 2 hours, and then the mixture was filtered with a glassfilter GF/C treated with polyethyleneimine. After the glassfilter was washed with 50 mM Tris-HCl buffer (pH 7.4), the radioactivity on the filter was measured with a gamma counter. The non-specific binding was detected in the presence of 200 nM of peptide YY. The 50% inhibitory concentration of the test compound against the specific peptide YY binding (IC50 value) was calculated (Inui, A. et al. Endocrinology 131, 2090-2096 (1992)).
(§2) Using the membranes prepared from Y1-expression cells (human neuroblastoma, SK-N-MC) and the membranes prepared from Y2-expression cells (human neuroblastoma, SMS-KAN), the experiment was carried out in a similar way as Experiment 1 to determine the affinity for NPY Y1 receptor and NPY Y2 receptor.

A further assay addresses T3, NPY Y2 receptor (Homo sapiens, UniProt P49146).
T3 construct: membranes prepared from Y2-expression cells (human neuroblastoma, SMS-KAN); endogenous in cells; host or cells: SMS-KAN human neuroblastoma cells (membranes)
T3 sequence (P49146 1-381): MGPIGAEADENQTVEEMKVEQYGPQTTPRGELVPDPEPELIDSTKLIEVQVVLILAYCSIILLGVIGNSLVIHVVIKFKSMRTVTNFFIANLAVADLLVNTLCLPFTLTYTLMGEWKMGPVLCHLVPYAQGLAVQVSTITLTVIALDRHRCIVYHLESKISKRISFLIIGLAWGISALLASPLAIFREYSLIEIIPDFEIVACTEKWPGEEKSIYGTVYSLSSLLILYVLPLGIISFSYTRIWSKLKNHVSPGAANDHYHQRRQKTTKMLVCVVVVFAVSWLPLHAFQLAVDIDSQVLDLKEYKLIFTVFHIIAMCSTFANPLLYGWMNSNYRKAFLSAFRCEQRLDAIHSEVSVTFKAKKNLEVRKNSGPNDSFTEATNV
Briefly: Affinity for NPY Y2 receptor (membranes from SMS-KAN cells). The settings on record: membranes from Y2-expression cells (human neuroblastoma, SMS-KAN); read-out: Binding IC50 for NPY Y2 receptor. As for the experimental part: as §1, §2

Take `C[C@@H]1CN(c2ccc(NC(=O)[C@H]3CC[C@H](NS(=O)(=O)C(C)(C)C)CC3)cc2F)C[C@H](C)O1` [Ia-21]: the IC50 (commonly the concentration at which inhibition is half-maximal) was 3.4 nM on human NPY Y5 receptor [1], 35 nM at human NPY Y5 receptor [2], not below 100000 nM at NPY Y1 receptor and not below 100000 nM at NPY Y2 receptor.

Consider `Cc1cc(NC(=O)[C@H]2CC[C@H](NS(=O)(=O)C(C)(C)C)CC2)ccc1N1C[C@@H](C)O[C@@H](C)C1` [Ia-22], for which the IC50 at human NPY Y5 receptor [1] was 3.1 nM; against human NPY Y5 receptor [2] it was 38 nM; at NPY Y1 receptor, not below 100000 nM; at NPY Y2 receptor, not below 100000 nM.

Take `C[C@@H]1CN(c2ccc(NC(=O)C3CCC(NS(=O)(=O)C(C)(C)C)CC3)c(F)c2)C[C@H](C)O1` (stereo partly drawn) [Ia-26]: the IC50 on human NPY Y5 receptor [1] is 1.9 nM; against human NPY Y5 receptor [2] it was 27 nM; at NPY Y1 receptor it was not below 100000 nM; at NPY Y2 receptor, not below 100000 nM.

Consider `Cc1cc(N2C[C@@H](C)O[C@@H](C)C2)ccc1NC(=O)C1CCC(NS(=O)(=O)C(C)(C)C)CC1` (stereo partly drawn) [Ia-28], for which the IC50 on human NPY Y5 receptor [1] is 5.2 nM; on human NPY Y5 receptor [2], 130 nM; on NPY Y1 receptor it was not below 100000 nM; on NPY Y2 receptor it was not below 100000 nM.

Regarding `C[C@@H]1CN(c2ccc(NC(=O)C3CCC(NS(=O)(=O)C(C)(C)C)CC3)c(F)c2F)C[C@H](C)O1` (stereo partly drawn) [Ia-29], the half-inhibitory concentration (IC50) on human NPY Y5 receptor [1] was 1 nM; against human NPY Y5 receptor [2], 7.3 nM; at NPY Y1 receptor, not below 100000 nM; on NPY Y2 receptor, not below 100000 nM.

As for `C[C@@H]1CN(c2c(F)c(F)c(NC(=O)C3CCC(NS(=O)(=O)C(C)(C)C)CC3)c(F)c2F)C[C@H](C)O1` (stereo partly drawn) [Ia-30], the IC50 was 2.6 nM on human NPY Y5 receptor [1], 25 nM against human NPY Y5 receptor [2], not below 100000 nM at NPY Y1 receptor and not below 100000 nM on NPY Y2 receptor.

`CC(C)(C)S(=O)(=O)NC1CCC(C(=O)Nc2ccc(Cl)cc2Cl)CC1` (stereo not drawn) [Ia-31]: the IC50 at human NPY Y5 receptor [1] was 3.8 nM; against human NPY Y5 receptor [2] it was 11 nM; at NPY Y1 receptor, not below 100000 nM; on NPY Y2 receptor it was not below 100000 nM.

In the case of `CC(C)(C)S(=O)(=O)NC1CCC(C(=O)Nc2ccc(Cl)c(Cl)c2)CC1` (stereo not drawn) [Ia-32], the half-inhibitory concentration (IC50) is 0.52 nM on human NPY Y5 receptor [1], 6.7 nM on human NPY Y5 receptor [2], not below 100000 nM at NPY Y1 receptor and not below 100000 nM on NPY Y2 receptor.

On to `COc1ccc(NC(=O)C2CCC(NS(=O)(=O)C(C)(C)C)CC2)cc1OC` (stereo not drawn) [Ia-33], for which the IC50 on human NPY Y5 receptor [1] is 1.8 nM; at human NPY Y5 receptor [2], 64 nM; on NPY Y1 receptor, not below 100000 nM; on NPY Y2 receptor it was not below 100000 nM.

As for `C[C@@H]1C[C@H](C)CN(c2ccc(NC(=O)C3CCC(NS(=O)(=O)C(C)(C)C)CC3)cc2)C1` (stereo partly drawn) [Ia-37], the IC50 is 0.73 nM at human NPY Y5 receptor [1], 3.8 nM at human NPY Y5 receptor [2], not below 100000 nM at NPY Y1 receptor and not below 100000 nM at NPY Y2 receptor.

With `COc1ccc(NC(=O)C2CCC(NS(=O)(=O)C(C)(C)C)CC2)cc1Cl` (stereo not drawn) [Ia-39], the half-maximal inhibitory concentration (IC50) at human NPY Y5 receptor [1] was 1.5 nM; at human NPY Y5 receptor [2], 3.5 nM; on NPY Y1 receptor, not below 100000 nM; at NPY Y2 receptor it was not below 100000 nM.

For the compound `C[C@@H]1CN(c2ccc(NC(=O)C3CCC(NS(=O)(=O)C(C)(C)C)CC3)cn2)C[C@H](C)O1` (stereo partly drawn) [Ia-40], the IC50 is 2.2 nM at human NPY Y5 receptor [1], 9.3 nM against human NPY Y5 receptor [2], not below 100000 nM on NPY Y1 receptor and not below 100000 nM at NPY Y2 receptor.

As to `Cc1cc(NC(=O)C2CCC(NS(=O)(=O)C(C)C)CC2)ccc1N1C[C@@H](C)O[C@@H](C)C1` (stereo partly drawn) [Ia-50], the IC50 at human NPY Y5 receptor [1] was 1.7 nM; at human NPY Y5 receptor [2] it was 24 nM; at NPY Y1 receptor, not below 100000 nM; on NPY Y2 receptor, not below 100000 nM.

Consider `CC(C)S(=O)(=O)NC1CCC(C(=O)Nc2ccc(N3C[C@@H](C)O[C@@H](C)C3)nc2)CC1` (stereo partly drawn) [Ia-51], for which the half-maximal inhibitory concentration (IC50) is 1.3 nM on human NPY Y5 receptor [1], 3.4 nM on human NPY Y5 receptor [2], not below 100000 nM at NPY Y1 receptor and not below 100000 nM at NPY Y2 receptor.

Turning to `Cc1cc(N2C[C@@H](C)O[C@@H](C)C2)ccc1NC(=O)C1CCC(NS(=O)(=O)C(C)C)CC1` (stereo partly drawn) [Ia-54], the half-maximal inhibitory concentration (IC50) at human NPY Y5 receptor [1] is 0.44 nM; on human NPY Y5 receptor [2], 9 nM; at NPY Y1 receptor it was not below 100000 nM; on NPY Y2 receptor, not below 100000 nM.
